# Values quoted from earlier work as cited in US20130210624A1, “COMPOSITION FOR IMPROVING PLANT HEALTH AND METHOD OF APPLYING SAME” (priority 2012, published 2013).
# Test system: oranges
# Conditions: single prebloom foliar application; Albrigo 1999
substance,measurement,value
phosphite,flower number,increased flower number
same,yield,increased yield
